Source: patent US10201625B2, “Radiolabelled octreotate analogues as PET tracers” (IMPERIAL COLLEGE, priority 2011, dated 2019)
Where two headings read alike, the source gives them in different places. Values belong to the molecule of their own block, whether it stands above or below them.

Experiments:
AR42J tumor xenografts [1] = test: Dynamic PET imaging of AR42J tumor bearing mice; conditions: mouse, in vivo; for Tumor radiotracer uptake at 60 min by imaging: iv
Text: (§1) Briefly, tail veins were cannulated under general anesthesia (isofluorane).

[2] = Protocol: The octanol/PBS partition coefficients were determined using the shake flask method. Both solvents were presaturated with each other by shaking together for 5 min. To a solution of 500 μL of both octanol and PBS was added 20 μL of radiolabelled ligand in EtOH (n=3). The solutions mixtures were shaken in a rotamixer for 5 minutes. After equilibration the mixtures were centrifuged (10 min at 13,000 rpm) to achieve good separation. Samples from each layer (25 μL) were taken and measured in a γ counter and Log D was calculated according to the formula: log D=log(cpm in octanol layer/cpm in aqueous layer). Log D values were measured using the ^18F-labelled triazole. […] The receptor affinities for [^18F]1b-6b were determined using a competitive binding assay in AR42J tumours cells with [^111In]-OctreoScan as the labeled radiotracer.
AR42J tumor xenografts [3] = test: Direct counting of tissue radioactivity (γ-counter), AR42J tumor; design: species or system mice; conditions: mouse, in vivo
somatostatin receptor = molecular target: T1, somatostatin receptor (Rattus norvegicus, UniProt P30680); test: Competitive binding assay displacing [111In]-DTPA-Octreotide (OctreoScan) on AR42J tumour cells
T1 construct: endogenous in cells; host or cells: AR42J pancreatic tumour cells (whole cells)

[4] = Dynamic PET imaging of AR42J tumor bearing mice; conditions: female, BALB/c nu/nu athymic, mouse, in vivo, iv, total radioactivity; AR42J tumor, 60 min, i.v.; read-out: Tumor radiotracer uptake at 60 min by imaging
Text: as §1

[5] = Direct counting of tissue radioactivity (γ-counter), AR42J tumor; design: species or system mice; conditions: female, BALB/c nu/nu athymic, mouse, in vivo, iv, total radioactivity; AR42J tumor, after 60 min PET scan; read-out: Tumor radiotracer uptake after 60 min by γ-counting
[6] = cited from earlier work
sstr-2 = sstr-2 (Homo sapiens, UniProt P30874); test: Calcium flux FLIPR assay, agonist mode, sstr-2 expressing Chem-1 cells
AR42J tumor = conditions: same tumor model; cited from earlier work
[7] = [19F]-triazole, read-out: Triazole analogue (b) IC50
[8] = read-out: Alkyne analogue (a) IC50

T1 sequence (P30680 whole entry): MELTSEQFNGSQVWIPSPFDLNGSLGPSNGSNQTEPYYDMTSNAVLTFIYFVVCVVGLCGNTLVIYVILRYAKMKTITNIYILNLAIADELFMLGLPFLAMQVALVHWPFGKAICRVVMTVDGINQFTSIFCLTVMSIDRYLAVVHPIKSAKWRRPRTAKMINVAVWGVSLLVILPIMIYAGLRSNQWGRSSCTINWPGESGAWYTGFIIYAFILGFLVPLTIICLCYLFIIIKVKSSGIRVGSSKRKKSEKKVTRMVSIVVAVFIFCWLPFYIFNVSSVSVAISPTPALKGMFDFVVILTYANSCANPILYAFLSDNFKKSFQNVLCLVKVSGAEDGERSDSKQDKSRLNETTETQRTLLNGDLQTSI
sstr-2, sequence (P30874 whole entry): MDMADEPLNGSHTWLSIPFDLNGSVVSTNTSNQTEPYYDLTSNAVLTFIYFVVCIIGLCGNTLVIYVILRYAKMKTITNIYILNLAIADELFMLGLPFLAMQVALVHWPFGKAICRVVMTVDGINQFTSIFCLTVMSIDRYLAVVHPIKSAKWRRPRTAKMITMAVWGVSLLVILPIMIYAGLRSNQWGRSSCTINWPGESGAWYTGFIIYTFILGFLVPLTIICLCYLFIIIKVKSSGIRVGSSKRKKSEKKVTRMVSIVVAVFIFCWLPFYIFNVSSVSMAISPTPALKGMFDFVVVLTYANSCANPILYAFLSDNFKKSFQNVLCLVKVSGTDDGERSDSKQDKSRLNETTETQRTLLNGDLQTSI

Molecule: FET-G-PEG-TOCA [1b]
Tumor radiotracer uptake at 60 min by imaging (AR42J tumor xenografts [1]; 1 h): 5.36 ± 0.45 % ID/ml
Log D [2]: −2.68
Log D of 18F-triazole [2]: −2.68
Tumor radiotracer uptake after 60 min by γ-counting (AR42J tumor xenografts [3]; iv, 1 h): 8.29 ± 1.42 % ID/g

Molecule: C[C@@H](O)[C@H](NC(=O)[C@@H]1CSSC[C@H](NC(=O)[C@@H](Cc2ccccc2)NC(=O)CN2CCN(CC(=O)O)CCN(CC(=O)O)CCN(CC(=O)O)CC2)C(=O)N[C@@H](Cc2ccc(O)cc2)C(=O)N[C@H](Cc2c[nH]c3ccccc23)C(=O)N[C@@H](CCCCN)C(=O)N[C@@H]([C@@H](C)O)C(=O)N1)C(=O)O [[^68Ga]DOTA-TATE, [^68Ga]-DOTATATE, metal not drawn, reference compound]
tissue uptake per volume at 1 h [4]: 2.75 ± 0.11 %ID/mL
tissue uptake at 1 h [5]: 3.78 ± 0.32 %ID/g

Molecule: C#CCCC(=O)NCCOCCOCCOCCOCCOCCOCCC(=O)N[C@H](Cc1ccccc1)C(=O)N[C@H]1CSSC[C@@H](C(=O)N[C@H](C(=O)O)[C@@H](C)O)NC(=O)[C@H]([C@@H](C)O)NC(=O)[C@H](CCCCN)NC(=O)[C@@H](Cc2c[nH]c3ccccc23)NC(=O)[C@H](Cc2ccc(O)cc2)NC1=O [2a, E-PEG-TOCA]
IC50 (somatostatin receptor; [8]): 5.1 ± 2.1 nM

Molecule: [Tyr^3]octreotate
Biological half life [6]: 1.5-2 hours

Molecule: C#CC(=O)NCC(=O)N[C@H](Cc1ccccc1)C(=O)N[C@H]1CSSC[C@@H](C(=O)N[C@H](C(=O)O)[C@@H](C)O)NC(=O)[C@H]([C@@H](C)O)NC(=O)[C@H](CCCCN)NC(=O)[C@@H](Cc2c[nH]c3ccccc23)NC(=O)[C@H](Cc2ccc(O)cc2)NC1=O [3a, G-TOCA]
IC50 (somatostatin receptor; [8]): 1.4 ± 0.1 nM

Molecule: C[C@@H](O)[C@@H]1NC(=O)[C@H](CCCCN)NC(=O)[C@@H](Cc2c[nH]c3ccccc23)NC(=O)[C@H](Cc2ccccc2)NC(=O)[C@@H](NC(=O)[C@@H](Cc2ccccc2)NC(=O)CN(CCN(CCN(CC(=O)[O-])CC(=O)O)CC(=O)[O-])CC(=O)[O-])CSSC[C@@H](C(=O)N[C@H](CO)[C@@H](C)O)NC1=O.[111In+3] [[^111In]-DTPA-octreotide]
Tumor uptake reported by Froidevaux et al. (AR42J tumor): 3.03±0.26 % ID/g

Molecule: FETE-PEG-TOGA [2b]
Liver uptake in words (AR42J tumor xenografts [1]): highest liver uptake
Tumor radiotracer uptake at 60 min by imaging (AR42J tumor xenografts [1]; 1 h): 5.14 ± 0.40 % ID/ml
Log D [2]: −2.77
Log D of 18F-triazole [2]: −2.77
IC50 (somatostatin receptor; [7]): 13.2 ± 7.8 nM
Tumor radiotracer uptake after 60 min by γ-counting (AR42J tumor xenografts [3]; iv, 1 h): 9.78 ± 2.57 % ID/g

Results, then the molecule that gave them:

Kidney uptake in words (AR42J tumor xenografts [1]): highest
Liver uptake in words (AR42J tumor xenografts [1]): highest liver uptake
Tumor uptake/localization in words (AR42J tumor xenografts [1]): highest tumor uptake
Tumor radiotracer uptake at 60 min by imaging (AR42J tumor xenografts [1]): 11.0 ± 1.49 % ID/ml
Log D [2]: −1.82
Log D of 18F-triazole [2]: −1.83
IC50 (somatostatin receptor; [7]): 4 ± 1.4 nM
Tumor radiotracer uptake after 60 min by γ-counting (AR42J tumor xenografts [3]): 17.04 ± 2.76 % ID/g
Molecule: FET-G-TOGA [3b]

Activity/affinity on sstr-2 in words (sstr-2): poor affinity
Kidney uptake in words (AR42J tumor xenografts [1]): low
Tumor radiotracer uptake at 60 min by imaging (AR42J tumor xenografts [1]; 1 h): 0.10 ± 0.05 % ID/ml
Log D [2]: −1.14
Log D of 18F-triazole [2]: −1.14
Tumor radiotracer uptake after 60 min by γ-counting (AR42J tumor xenografts [3]; iv, 1 h): 0.22 ± 0.12 % ID/g
Molecule: FET-βAG-[W-c-(CTFTYC)K] [6b]

IC50 (somatostatin receptor; [8]): 1.8 ± 0.8 nM
Molecule: C#CCCC(=O)N[C@H](Cc1ccccc1)C(=O)N[C@H]1CSSC[C@@H](C(=O)N[C@H](C(=O)O)[C@@H](C)O)NC(=O)[C@H]([C@@H](C)O)NC(=O)[C@H](CCCCN)NC(=O)[C@@H](Cc2c[nH]c3ccccc23)NC(=O)[C@H](Cc2ccc(O)cc2)NC1=O [4a, E-TOCA]

IC50 (somatostatin receptor; [8]): 1 ± 0.3 nM
Molecule: C#CC(=O)NCCC(=O)NCC(=O)N[C@H](Cc1ccccc1)C(=O)N[C@H]1CSSC[C@@H](C(=O)N[C@H](C(=O)O)[C@@H](C)O)NC(=O)[C@H]([C@@H](C)O)NC(=O)[C@H](CCCCN)NC(=O)[C@@H](Cc2c[nH]c3ccccc23)NC(=O)[C@H](Cc2ccc(O)cc2)NC1=O [5a, propynoyl-β-Ala-Gly-[Tyr^3]-Octreotate]

Tumor radiotracer uptake at 60 min by imaging (AR42J tumor xenografts [1]): 6.11 ± 1.46 % ID/ml
Log D [2]: −1.50
Log D of 18F-triazole [2]: −1.5
IC50 (somatostatin receptor; [7]): 2.9 ± 1.3 nM
Tumor radiotracer uptake after 60 min by γ-counting (AR42J tumor xenografts [3]): 4.50 ± 1.51 % ID/g
Molecule: FETE-TOGA [4b]
